Twelve compounds from US11015216B2, “Substituted imidazo[1,2-a]pyrazines as luciferase substrates” (PROMEGA CORPORATION, priority 2016, dated 2021) can be followed below.

In series [1] the test system is luciferase. Kind of series: Additional luciferase substrate assay, compared to known analogue C-1 (Table 3). Format: biochemical. The settings on record: relative to C-1 (=1); cell marked (75) instead of @100 uM.
In series [2] the test system is luciferase. The series is described as above. The class given is biochemical. The settings on record: relative to C-1 (=1). On the procedure:
(§1) Luminescence Assay Procedure: Each compound to be screened was dissolved in DMSO (5 mM) and then further diluted to 100 uM in NANO-GLOR Luciferase Assay Buffer. Each diluted substrate was then combined in equal volumes with purified NanoLuc® Luciferase diluted into CO2 independent media+10% FBS. Initial light output for each substrate was measured in a GloMax®-Multi+ luminometer three minutes after substrate addition and then at five minute intervals as a means to determine signal half-life.
The compounds of formula (I) were also evaluated for their ability to be luciferase substrates in an additional assay.

Another series has as its target NanoLuc® Luciferase (Oplophorus gracilirostris, UniProt Q9GV45, A31E/A60N/A81I/F95D/I117V/K70R/L54V/L99Q/M102K/N193R/P142E/Q151K/Q38R/Q45L/V71I/Y165I). Format: biochemical. The settings on record: ratio to coelenterazine (=1); for I (relative light units, ratio in comparison to native coelenterazine): initial light output three minutes after substrate addition; for Half-life (signal half-life, ratio in comparison to native coelenterazine): read at five minute intervals. On the procedure:
as §1
A subset of the synthesized coelenterazine analogues (compounds of formula (I)) were evaluated for their suitability as luciferase substrates. NANOLUC® luciferase was employed for the screening because it is a small (19 kDa), stable, and particularly bright enzyme.

The next series has as its system HeLa cells. The experiment in a line: Cell viability assay, HeLa. Particulars: 24 h incubation, serial dilution, FIGS. 3 and 4. The class given is cell-based. Here is the method:
(§2) Cell Culture: HeLa and HEK293 cells were maintained in DMEM containing 0.3 mg/ml glutamine, 100 IU/ml penicillin, 100 μg/ml streptomycin, and 10% fetal calf serum at 37° C. in 5% CO2. Dulbecco's modified eagle medium (DMEM), Opti-MEM, Penicillin/Streptomycin, and Trypsin-EDTA were purchased from Life Technologies (Carlsbad). Fetal calf serum (FBS) was purchased from HyClone (GE Healthcare). Microtiter plates were purchased from Corning.
(§3) Cell viability assay: HEK293 or HeLa cells were plated in […] growth medium (DMEM supplemented with 10% FBS) into wells of white, TC-treated, 96-well plates at a density of 10000 cells per well and incubated for 24 h. The growth medium was then replaced with 100 μl Opti-MEM medium, which contained a serial dilution of the indicated compound. Changes in cell viability were then measured after incubation for 24 h using the […]® Green cell viability assay (Promega) according to manufacturer instructions. All luminescent measurements were performed on a GLOMAX® Discover multimode plate reader (Promega).

For another series, the system named is HEK293 cells. Kind of series: Cell viability assay, HEK293. The class given is cell-based. The settings on record: Hek293, 24 h incubation, serial dilution; FIGS. 5 and 6. Here is the method:
as §2, §3

Chain of NanoLuc® Luciferase (Q9GV45 other isoform, or with tags, fused parts or gaps with the stated changes): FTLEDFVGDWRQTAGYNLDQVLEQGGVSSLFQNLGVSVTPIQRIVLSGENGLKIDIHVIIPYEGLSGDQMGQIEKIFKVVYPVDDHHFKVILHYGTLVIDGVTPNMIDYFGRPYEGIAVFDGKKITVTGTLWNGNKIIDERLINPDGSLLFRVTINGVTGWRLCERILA

In the case of `O=c1c(Cc2ccc(F)c(O)c2)nc2c(Cc3ccccc3)[nH]c(-c3ccccc3)cn1-2` [Compound 20], the RLU in the series on luciferase [1] is 0.29 (75).
On the same count and under the same terms, with `COc1cc(F)ccc1Cc1nc2c(Cc3ccccc3)[nH]c(-c3ccccc3)cn-2c1=O` [Compound 22] the figure was 0.3 (75).
In the case of `COc1ccc(Cc2nc3c(Cc4ccccc4)[nH]c(-c4ccccc4)cn-3c2=O)c(OC)n1` [Compound 73], the “RLU (@100 uM)” value with luciferase [2] is 0.16. Moreover, on NanoLuc® Luciferase, the “I (relative light units, ratio in comparison to native coelenterazine)” value was found to be 6.666 and the “Half-life (signal half-life, ratio in comparison to native coelenterazine)” value was found to be 0.93.
The matching figures for `COc1nc(Cl)ccc1Cc1nc2c(Cc3ccccc3)[nH]c(-c3ccccc3)cn-2c1=O` [Compound 74]: 0.072, 3 and 1.09.
`O=c1c(Cc2ccc(Cl)nc2Cl)nc2c(Cc3ccccc3)[nH]c(-c3ccccc3)cn1-2` [Compound 75]: the “RLU (@100 uM)” value with luciferase [2] came out at 0.023. At NanoLuc® Luciferase, the “I (relative light units, ratio in comparison to native coelenterazine)” value was 0.958 and the “Half-life (signal half-life, ratio in comparison to native coelenterazine)” value is 0.57.
In the case of `Cc1ccc(Cc2nc3c(Cc4ccccc4)[nH]c(-c4ccccc4)cn-3c2=O)cn1` [Compound 76], the “compound-induced cellular toxicity compared to coelenterazine” value with HeLa cells is “notably reduced toxicity”. Moreover, the “compound-induced cellular toxicity compared to coelenterazine” value with HEK293 cells is “notably reduced toxicity”. The “RLU (@100 uM)” value in the series on luciferase [2] is given as 0.04. For the same compound, at NanoLuc® Luciferase, the “I (relative light units, ratio in comparison to native coelenterazine)” value was found to be 1.666 and the “Half-life (signal half-life, ratio in comparison to native coelenterazine)” value was 1.14.
As to `CN(C)c1ccc(Cc2nc3c(Cc4ccccc4)[nH]c(-c4ccccc4)cn-3c2=O)cn1` [Compound 77], the “RLU (@100 uM)” value with luciferase [2] was 0.042. For the same compound, on NanoLuc® Luciferase, the “I (relative light units, ratio in comparison to native coelenterazine)” value amounted to 1.75 and the “Half-life (signal half-life, ratio in comparison to native coelenterazine)” value was determined as 0.57.
`O=c1c(Cc2c(F)cc(F)cc2F)nc2c(Cc3ccccc3)[nH]c(-c3ccccc3)cn1-2` [Compound 78]: in the series with luciferase [2], the “RLU (@100 uM)” value is recorded as 0.21. Also, at NanoLuc® Luciferase, the “I (relative light units, ratio in comparison to native coelenterazine)” value was determined as 8.75 and the “Half-life (signal half-life, ratio in comparison to native coelenterazine)” value was 0.43.
As for `N#Cc1cccc(Cc2nc3c(Cc4ccccc4)[nH]c(-c4ccccc4)cn-3c2=O)c1` [Compound 79], in the series on luciferase [2], the “RLU (@100 uM)” value is listed as 0.33. For the same compound, on NanoLuc® Luciferase, the “I (relative light units, ratio in comparison to native coelenterazine)” value came to 13.87 and the “Half-life (signal half-life, ratio in comparison to native coelenterazine)” value is recorded as 0.52.
The matching figures for `O=c1c(Cc2cn3ccsc3n2)nc2c(Cc3ccccc3)[nH]c(-c3ccccc3)cn1-2` [Compound 80]: 0.052, 2.166 and 1.62.
The matching figures for `O=c1c(Cc2ccc(CN3CCOCC3)o2)nc2c(Cc3ccccc3)[nH]c(-c3ccccc3)cn1-2` [Compound 81]: 0.0059, 0.246 and 1.19.
Take `O=c1c(Cc2cnns2)nc2c(Cc3ccccc3)[nH]c(-c3ccccc3)cn1-2` [Compound 82]: the “RLU (@100 uM)” value in the series with luciferase [2] is on record as 0.13. For the same compound, on NanoLuc® Luciferase, the “I (relative light units, ratio in comparison to native coelenterazine)” value is 5.416 and the “Half-life (signal half-life, ratio in comparison to native coelenterazine)” value came out at 1.19.
